Data from patent publication US10894807B2 (Siemens Medical Solutions USA, Inc., priority 2011, dated 2021).

Biological target: human PSMA (Homo sapiens (Human), UniProt Q04609)
Experiment: Enzymatic assay for in vitro evaluation of PSMA inhibitors (fluorescent assay of PSMA activity, NAAG substrate, OPA detection of glutamate)
Type: biochemical

Chain of human PSMA (Q04609 whole entry): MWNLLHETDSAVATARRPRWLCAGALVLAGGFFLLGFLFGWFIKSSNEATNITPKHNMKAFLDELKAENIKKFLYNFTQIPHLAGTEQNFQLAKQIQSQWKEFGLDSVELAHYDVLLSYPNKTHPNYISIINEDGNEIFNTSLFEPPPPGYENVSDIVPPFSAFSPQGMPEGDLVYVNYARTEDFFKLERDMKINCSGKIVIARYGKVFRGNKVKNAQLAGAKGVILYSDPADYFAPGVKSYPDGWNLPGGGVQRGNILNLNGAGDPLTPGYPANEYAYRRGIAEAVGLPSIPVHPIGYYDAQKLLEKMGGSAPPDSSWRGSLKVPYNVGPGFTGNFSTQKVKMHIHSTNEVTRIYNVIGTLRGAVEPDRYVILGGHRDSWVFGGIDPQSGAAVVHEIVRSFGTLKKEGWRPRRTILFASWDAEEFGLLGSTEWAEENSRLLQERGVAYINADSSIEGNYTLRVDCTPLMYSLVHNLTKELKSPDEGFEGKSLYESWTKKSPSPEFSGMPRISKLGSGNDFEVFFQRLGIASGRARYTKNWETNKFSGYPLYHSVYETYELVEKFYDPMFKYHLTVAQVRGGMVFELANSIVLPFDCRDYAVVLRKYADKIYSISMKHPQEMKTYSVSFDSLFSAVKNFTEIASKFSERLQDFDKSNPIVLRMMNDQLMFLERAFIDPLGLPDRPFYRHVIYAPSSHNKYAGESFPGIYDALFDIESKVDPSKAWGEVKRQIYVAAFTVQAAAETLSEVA

SMILES | PSMA Blkg % (1.0 μM) [%] | Ki [nM]
O=C(O)CC[C@H](NC(=O)N[C@@H](CCCCNc1nc(-c2ccc(F)cc2)cs1)C(=O)O)C(=O)O [P232, (S)-2-(3-((S)-1-Carboxy-5-(4-(4-fluorophenyl)thiazol-2-ylamino)pentyl)ureido)pentanedioic Acid] | 96 | 
O=C(O)CC[C@H](NC(=O)N[C@@H](CCCCNc1nc(-c2cccc([N+](=O)[O-])c2)cs1)C(=O)O)C(=O)O [P233, (S)-2-(3-((S)-1-Carboxy-5-(4-(3-nitrophenyl)thiazol-2-ylamino)pentyl)ureido)pentanedioic Acid] | 96 | 
O=C(O)CC[C@H](NC(=O)N[C@@H](CCCCNc1nc(-c2cc3ccccc3s2)cs1)C(=O)O)C(=O)O [P234, (S)-2-(3-((S)-5-(4-(Benzo[b]thiophen-2-yl)thiazol-2-ylamino)-1-carboxypentyl)ureido) pentanedioic Acid] | 86 | 
O=C(O)CC[C@H](NC(=O)N[C@@H](CCCCNc1nc(-c2ccc3c(c2)OCO3)cs1)C(=O)O)C(=O)O [P235, (S)-2-(3-((S)-5-(4-(Benzo[d][1,3]dioxol-5-yl)thiazol-2-ylamino)-1-carboxypentyl)ureido)-pentanedioic Acid] | 100 | < 0.3
O=C(O)CC[C@H](NC(=O)N[C@@H](CCCCNc1nc(-c2ccnc(Cl)c2)cs1)C(=O)O)C(=O)O [P236, (S)-2-(3-((S)-1-Carboxy-5-(4-(2-chloropyridin-4-yl)thiazol-2-ylamino)pentyl)ureido)-pentanedioic Acid] | 99 | 
O=C(O)CC[C@H](NC(=O)N[C@@H](Cc1ccc(NC(=O)N2CCN(C(=O)Cn3cc(CCCF)nn3)CC2)cc1)C(=O)O)C(=O)O [P237, (S)-2-(3-((S)-1-Carboxy-2-(4-(4-(2-(4-(3-fluoropropyl)-1H-1,2,3-triazol-1-yl)acetyl)piperazine-1-carboxamido)phenyl)ethyl)ureido)pentanedioic Acid] | 100 | 3.8
O=C(O)CC[C@H](NC(=O)N[C@@H](Cc1ccc(NC(=O)c2cc(C(=O)Nc3ccc(C[C@H](NC(=O)N[C@@H](CCC(=O)O)C(=O)O)C(=O)O)cc3)cc(-n3cc(CCCF)nn3)c2)cc1)C(=O)O)C(=O)O [P238, (2S,2′S)-2,2′-(((((1S,1′S)-(((5-(4-(3-Fluoropropyl)-1H-1,2,3-triazol-1-yl)isophthaloyl)bis(azanediyl))bis(4,1-phenylene))bis(1-carboxyethane-2,1-diyl))bis(azanediyl))bis(carbonyl))bis(azanediyl))dipentanedioic Acid] | 100 | < 0.3
O=C(O)CC[C@H](NC(=O)C[C@@H](NC(=O)CCNC(=O)OCc1ccccc1)C(=O)O)C(=O)O [P239, (9R,13S)-3,7,11-Trioxo-1-phenyl-2-oxa-4,8,12-triazapentadecane-9,13,15-tricarboxylic Acid] | 33 | 
O=C(O)CC[C@H](NC(=O)N[C@@H](Cc1ccc(Nc2nc(-c3ccc(-n4cc(CCCF)nn4)cc3)cs2)cc1)C(=O)O)C(=O)O [P240] | 94 | 28
O=C(O)CC[C@H](NC(=O)N[C@@H](Cc1ccc(NC(=O)c2ccc(F)cc2)cc1)C(=O)O)C(=O)O [P241] | 94 | 0.38
O=C(O)CC[C@H](NC(=O)N[C@@H](CCCCNc1cc(OCc2cn(CCF)nn2)ccc1[N+](=O)[O-])C(=O)O)C(=O)O [P242, (S)-2-(3-((S)-1-Carboxy-5-((5-((1-(2-fluoroethyl)-1H-1,2,3-triazol-4-yl)methoxy)-2-nitrophenyl)amino)pentyl)ureido)pentanedioic Acid] | 99 | 0.07
O=C(O)CC[C@H](NC(=O)C[C@@H](NC(=O)CCNC(=O)Cn1cc(CCCF)nn1)C(=O)O)C(=O)O [P243, (S)-2-((R)-3-Carboxy-3-(3-(2-(4-(3-fluoropropyl)-1H-1,2,3-triazol-1-yl)acetamido)propanamido)-propanamido)pentanedioic Acid] | 5 | 
O=C(O)CC[C@H](NC(=O)N[C@@H](CCCCNc1nc(-c2cccc(NC(=O)Cn3cc(CCCF)nn3)c2)cs1)C(=O)O)C(=O)O [P244, (S)-2-(3-((S)-1-Carboxy-5-(4-(3-(2-(4-(3-fluoropropyl)-1H-1,2,3-triazol-1-yl)acetamido)phenyl)thiazol-2-ylamino)pentyl)ureido)pentanedioic Acid] | 98 | 0.38
O=C(O)CC[C@H](NC(=O)C[C@@H](NC(=O)CCNC(=O)c1ccc(-n2cc(CCCF)nn2)cc1)C(=O)O)C(=O)O [P245, (S)-2-((R)-3-Carboxy-3-(3-(4-(4-(3-fluoropropyl)-1H-1,2,3-triazol-1-yl)benzamido)propanamido)-propanamido)pentanedioic Acid] | 62 | 156
O=C(O)CC[C@H](NC(=O)N[C@@H](CCCCNC(=O)c1cc(C(=O)NCCCC[C@H](NC(=O)N[C@@H](CCC(=O)O)C(=O)O)C(=O)O)cc(-n2cc(CCCF)nn2)c1)C(=O)O)C(=O)O [P246, (2S,2′S)-2,2′-(((((1S,1′S)-((5-(4-(3-Fluoropropyl)-1H-1,2,3-triazol-1-yl)isophthaloyl)bis(azanediyl))bis(1-carboxypentane-5,1-diyl))bis(azanediyl))bis(carbonyl))bis(azanediyl))dipentanedioic Acid] | 100 | 0.16
O=C(O)CC[C@H](NC(=O)N[C@@H](CCCCn1c(=O)[nH]c2ccc(OCc3cn(CCF)nn3)cc21)C(=O)O)C(=O)O [P247, (S)-2-(3-((S)-1-Carboxy-5-(6-((1-(2-fluoroethyl)-1H-1,2,3-triazol-4-yl)methoxy)-2-oxo-2,3-dihydro-1H-benzo[d]imidazol-1-yl)pentyl)ureido)pentanedioic Acid] | 100 | 0.63
O=C(O)CC[C@H](NC(=O)N[C@@H](Cc1ccc(NC(=O)N2CCN(C(=O)c3ccc(-n4cc(CCCF)nn4)cc3)CC2)cc1)C(=O)O)C(=O)O [P248, (S)-2-(3-((S)-1-Carboxy-2-(4-(4-(4-(4-(3-fluoropropyl)-1H-1,2,3-triazol-1-yl)benzoyl)piperazine-1-carboxamido)phenyl)ethyl)ureido)pentanedioic Acid] | 100 | 3.4
O=C(O)CC[C@H](NC(=O)N[C@@H](CC1CCN(C(=S)Nc2ccc(-n3cc(CCCF)nn3)cc2)CC1)C(=O)O)C(=O)O [P250, (S)-2-(3-((S)-1-Carboxy-2-(1-((4-(4-(3-fluoropropyl)-1H-1,2,3-triazol-1-yl)phenyl)carbamothioyl)piperidin-4-yl)ethyl)ureido)pentanedioic Acid] | 96 | 4.1
O=C(O)CC[C@H](NC(=O)N[C@@H](CCCCNc1cc(OCCOCCOCCn2cc(CCCF)nn2)ccc1[N+](=O)[O-])C(=O)O)C(=O)O [P251, (S)-2-(3-((S)-1-Carboxy-5-((5-(2-(2-(2-(4-(3-fluoropropyl)-1H-1,2,3-triazol-1-yl)ethoxy)ethoxy)ethoxy)-2-nitrophenyl)amino)pentyl)ureido)pentanedioic Acid] | 100 | 0.34
